Reference: US20130149331A1, “RHAMNOSE AND FORSSMAN CONJUGATED IMMUNOGENIC AGENTS” (priority 2011, published 2013)

Tested on: anti-Rha antibodies in normal human serum
Experiment: Competitive ELISA assay with free monosaccharides, BSA-R1 immobilized
Assay type: binding
Conditions: free monosaccharide 200 mM to 12.5 mM; human serum 1:2000; anti-human IgG detection
Method: Competitive ELISA assay. To further verify the specific antibody against Rha epitopes, inhibition ELISA was performed by immobilizing Rha conjugated BSA (BSA-R1) (10 μg ml^−1) on the 96-well plate, and free D-mannose (Man), D-glucose (Glc), N-Acetyl-Dglucosamine (GlcNAc), D-xylose (Xyl), L-fucose (Fuc), N-Acetyl-D-galactosamine (GalNAc), D-galactose (Gal) and L-rhamnose (Rha) were used as competing antigens (2-fold dilutions from 200 mM to 12.5 mM). After coated with BSA-R1 at 4° C. overnight, the solution was depleted and washed by PBST for three times (three minutes each time). Then, the plate was blocked with 5% (w/v) non-fat milk (PBST) in RT for 1.5 h, and rinsed by PBST once. Normal human serum diluted (1:2000) previously, containing different free monosaccharide at different concentration, was added into the 96-well plate with 0.1 mL per well. After 2 h incubation, the plate was rinsed by PBST 3 times. Then 0.1 mL Horseradish Peroxidase (HRP)-conjugated antihuman IgG antibody (1:3000) was added into each well and stayed in RT for 1 h. Finally, after the plates were washed, enzyme substrate tetramethylbenzidine (TMB) was added and allowed to react for 10-20 min before the enzymatic reaction was terminated by adding 1N HCl and the absorbance was read at wavelength of 450 nm in a FlexStation® 3 Microplate Reader (Molecular devices).

C[C@H](O)[C@H](O)[C@@H](O)[C@@H](O)C=O [Rha, L-rhamnose]
competition for antibodies in human serum: pulled down the antibodies
